These results are taken from patent US20200181284A1, “EPIGENETIC INHIBITORS FOR SENSITIZING HEMATOLOGIC OR OTHER MALIGNANCIES TO GLUCOCORTICOID THERAPY” (UNIVERSITY OF SOUTHERN CALIFORNIA, priority 2017, published 2020).

The test system of experiment [1] is NALM6 cells. Description: Immunoblot of apoptosis markers (cleaved caspase 3, caspase 7, PARP1) in NALM6 cells. It is filed as cell-based, human. Particulars: NALM6, 24-hour treatment with KDM inhibitor. As to the method:
Cells were treated as indicated, and cell extracts were prepared in RIPA buffer ([…] Tris-HCl, pH 8, 150 mM NaCL, 1 mM EDTA, 1% NP-40, and 0.25% deoxycholate) supplemented with protease inhibitor tablets (Roche Molecular Biochemicals) and phosphatase inhibitors (1 mM NaF, 1 mM Na3VO4, and 1 mM β-glycerophosphate). Protein extracts were incubated overnight at 4° C. with shaking with 1 μg of antibodies against EHMT2 (Sigma G6919), EHMT1 (Millipore 09-078), or pan phospho-threonine (Millipore AB1607). Protein A/G plus agarose beads (Santa Cruz sc-2003) were added, and the mixture was incubated 2 h at 4° C. The immunoprecipitates were separated on SDS-PAGE. […]
FIGS. 40A, 40B, 40C, 40D-1, 40D-2, 40D-3, and 40D-4 show Aurora kinase B inhibitors sensitizing NALM6 cells to GC-induced cell death. As shown in FIGS. 40A and 40B, NALM6 cells were treated with the indicated dex concentration in addition to 0.75 μM ZM447439 (FIG. 40A), 16 nM AZD2811 (FIG. 40B), or equivalent volume of vehicle DMSO for 72 h, and cell survival was measured by a fluorescence metabolic assay. In each condition, the value measured with dex was normalized to the fluorescence value measured with ethanol. Percentage of survival is shown as the mean±SEM of 4 independent experiments and p-values for individual dex concentrations were calculated using a paired t-test. *p≤0.05, **p≤0.01, * * *p≤0.001. […]

Experiment [2] has as its target T1, endogenous G9a and GLP (Homo sapiens, UniProt Q96KQ7+Q9H9B1).
T1 construct: highlight methylation of endogenous G9a and GLP in A549 cells; endogenous in cells; host or cells: A549
The experiment is described as follows: Methylation of endogenous G9a and GLP in A549 cells. It is filed as cell-based. Particulars: 2 μM, 24 h. How it is done: (§1) Cos-7 or A549 cells were seeded on 10-cm dishes the day before transfection. Cells were transiently transfected (where indicated) using Lipofectamine 2000 (Invitrogen) with 5 μg each of the indicated plasmids according to the manufacturer's protocol. At 48 h after transfection, cells were treated (or not) with dex for the indicated time period, and cell extracts were prepared in RIPA buffer (50 mM Tris-HCl, pH 8, 150 mM NaCl, 1 mM EDTA, 1% NP-40 and 0.25% deoxycholate) supplemented with protease inhibitor tablets (Roche Molecular Biochemicals) and phosphatase inhibitors (1 mM NaF, 1 mM Na3VO4 and 1 mM β-glycerophosphate). Protein extracts were incubated with 1 μg of the indicated primary antibodies overnight at 4° C. with shaking. Protein A/G Plus Agarose (Santa Cruz sc-2003) beads were added and the mixture was incubated 2 hr at 4° C. The immunoprecipitates were separated on SDS-PAGE. […] In immunoprecipitation experiments 3% of the input of each sample was analyzed by immunoblot using the antibodies listed.
The results as shown in FIGS. 24E-1 and 24E-2 highlight methylation of endogenous G9a and GLP in A549 cells. […] Western-Blot quantification was determined relative to input using ChemiDoc MP (Biorad) to measure chemiluminescence from the immunoblots, and the ratio of the IP signal to the input signal was calculated for each sample.

Experiment [3] concerns phosphorylation of GR or HP1γ. The experiment is described as follows: Immunoblot of GR and HP1γ phosphorylation in A549 cells. Particulars: 2 μM, 24 h. It is filed as cell-based, human. How it is done: as §1
102371 Aurora kinase B inhibition has no effect of phosphorylation of GR or HP1γ as highlighted in the results as shown in FIG. 27E. […] Whole-cell extracts were analyzed with the listed antibodies by immunoblot.

In experiment [4] the test system is interaction between HP1γ and G9a. Description: Co-immunoprecipitation of HA-hG9a with HP1γ in Cos-7 cells. It counts as cell-based, African green monkey. Particulars: 2 μM, 24 h. As to the method:
as §1, with “listed. […]” for “listed.”

With `Clc1ccc(N/N=C(\c2ccccc2)c2ccccn2)nc1` [JIB-04, 5-chloro-N-[(E)-[phenyl(pyridin-2-yl)methylidene]amino]pyridin-2-amine], the “dex-induced cleavage of caspase-3, caspase-7, and PARP1” value in experiment [1] was “enhanced”. `COc1cc2c(NC3CCN(C4CCCCC4)CC3)nc(N3CCCN(C(C)C)CC3)nc2cc1OCCCN1CCCCC1` [UNC0646]: in experiment [2], the “endogenous level of G9a and GLP” value is given as “increased”; the “proportion of G9a and GLP that was methylated” value is “decreased substantially”. With `COc1cc2c(Nc3ccc(NC(=O)c4ccccc4)cc3)ncnc2cc1OCCCN1CCOCC1` [ZM447439, N-[4-[[6-methoxy-7-(3-morpholin-4-ylpropoxy)quinazolin-4-yl]amino]phenyl]benzamide], the “phosphorylation of GR or HP1γ” value in experiment [3] is on record as “no effect”. The “interaction between HP1γ and G9a” value in experiment [4] is “increased”.
